What all share (assay type): functional
The test system of experiment [1] is Aspergillus niger. The experiment can be described thus: Antifungal activity against Aspergillus niger at 10 ug/ml after 96 hr.
Experiment [2] has as its system Geobacillus stearothermophilus. Description: Antibacterial activity against Geobacillus stearothermophilus MTCC 8508 at 100 ug/ml after 24 hr by agar well diffusion method.
Experiment [3] concerns Aspergillus niger. Description: Antifungal activity against Aspergillus niger at 100 ug/ml after 96 hr.
Experiment [4] deals with Geobacillus stearothermophilus. The experiment can be described thus: Antibacterial activity against Geobacillus stearothermophilus MTCC 8508 at 50 ug/ml after 24 hr by agar well diffusion method.
In experiment [5] the test system is Aspergillus flavus. The experiment can be described thus: Antifungal activity against Aspergillus flavus at 10 ug/ml after 96 hr.
The test system of experiment [6] is Escherichia coli. The experiment can be described thus: Antibacterial activity against Escherichia coli MTCC 51 at 10 ug/ml after 24 hr by agar well diffusion method.
Experiment [7] concerns Geobacillus stearothermophilus. Description: Antibacterial activity against Geobacillus stearothermophilus MTCC 8508 at 10 ug/ml after 24 hr by agar well diffusion method.
In experiment [8] the test system is Aspergillus flavus. Description: Antifungal activity against Aspergillus flavus at 50 ug/ml after 96 hr.
The subject of experiment [9] is Bacillus subtilis. The experiment can be described thus: Antibacterial activity against Bacillus subtilis MTCC 121 at 50 ug/ml after 24 hr by agar well diffusion method.
Experiment [10] deals with Escherichia coli. The experiment can be described thus: Antibacterial activity against Escherichia coli MTCC 51 at 50 ug/ml after 24 hr by agar well diffusion method.
For experiment [11], the system named is Pseudomonas putida. Description: Antibacterial activity against Pseudomonas putida at 10 ug/ml after 24 hr by agar well diffusion method.
Experiment [12] concerns Bacillus subtilis. Description: Antibacterial activity against Bacillus subtilis MTCC 121 at 10 ug/ml after 24 hr by agar well diffusion method.
For experiment [13], the system named is Aspergillus niger. Description: Antifungal activity against Aspergillus niger at 50 ug/ml after 96 hr.
The subject of experiment [14] is Escherichia coli. Description: Antibacterial activity against Escherichia coli MTCC 51 at 100 ug/ml after 24 hr by agar well diffusion method.
In experiment [15] the test system is Bacillus subtilis. Description: Antibacterial activity against Bacillus subtilis MTCC 121 at 100 ug/ml after 24 hr by agar well diffusion method.
Experiment [16] deals with Pseudomonas putida. Description: Antibacterial activity against Pseudomonas putida at 50 ug/ml after 24 hr by agar well diffusion method.
Experiment [17] deals with Aspergillus flavus. Description: Antifungal activity against Aspergillus flavus at 100 ug/ml after 96 hr.
Experiment [18] deals with Pseudomonas putida. The experiment can be described thus: Antibacterial activity against Pseudomonas putida at 100 ug/ml after 24 hr by agar well diffusion method.

One molecule from ChEMBL document CHEMBL3046135, “Iodine (III)-mediated synthesis of some 2-aryl/hetarylbenzoxazoles as antibacterial/antifungal agents” (2010) can be followed below.

Turning to `COc1cc(-c2nc3cc(Cl)ccc3o2)ccc1O` [4-(5-CHLOROBENZO[D]OXAZOL-2-YL)-2-METHOXYPHENOL], the inhibition at 10 µg/mL in experiment [1] amounted to 8.93%; in experiment [5], 29%. Further, the “diameter of the inhibition zone (DIZ)” value in experiment [2] is reported as 31.74%; in [4], 21.33%; in experiment [6], 9.33%; in [7] it was 10.66%; in experiment [9], 20.43%; in [10], 21.43%. The “diameter of the inhibition zone (DIZ)” value in experiment [11] amounted to 12.66%; in experiment [12] it was 9.33%; in experiment [14], 31.33%; in experiment [15] it was 31.33%; in [16] it was 26.33%; in experiment [18], 37.33%. The inhibition at 100 µg/mL in experiment [3] was found to be 21.9%; in experiment [17] it was 86.2%. For the same molecule, the inhibition at 50 µg/mL in experiment [8] was 51.4%; in experiment [13], 5.88%.
